Reference: PubChem BioAssay AID2060509 (Molecular Pharmacology Branch, DTP, NCI, 2025)

Test system: 485176-168-R4-J1-PDC spheroids with HUVEC/MSC, viability
Assay: Anticancer human tumor 485176-168-R4-J1-PDC patient-derived pancreatic adenocarcinoma cell line growth inhibition [GQUAD]
Conditions: for IC50: curve of first compound; for viability, T/C: stronger effect = lower value
How it was run: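 Multi-cell-type spheroids of tumor cells with HUVEC and mesenchymal stem cells, treated with drug combinations. Concentrations descend in half-log steps from near clinical Cmax, or from 10 microM where Cmax is unknown; viability read-out.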

[1] = second compound 0.0316 µM, first compound 0.0316 µM
[2] = second compound 0.0316 µM, first compound 0.1 µM
[3] = second compound 0.0316 µM, first compound 0.316 µM
[4] = second compound 0.0316 µM, first compound 1 µM
[5] = second compound 0.0316 µM, first compound 3.16 µM
[6] = second compound 0.0316 µM, first compound 10 µM
[7] = second compound 0.1 µM, first compound 0.0316 µM
[8] = second compound 0.1 µM, first compound 0.1 µM
[9] = second compound 0.1 µM, first compound 0.316 µM
[10] = second compound 0.1 µM, first compound 1 µM
[11] = second compound 0.1 µM, first compound 3.16 µM
[12] = second compound 0.1 µM, first compound 10 µM
[13] = second compound 0.316 µM, first compound 0.0316 µM
[14] = second compound 0.316 µM, first compound 0.1 µM
[15] = second compound 0.316 µM, first compound 0.316 µM
[16] = second compound 0.316 µM, first compound 1 µM
[17] = second compound 0.316 µM, first compound 3.16 µM
[18] = second compound 0.316 µM, first compound 10 µM
[19] = second compound 1 µM, first compound 0.0316 µM
[20] = second compound 1 µM, first compound 0.1 µM
[21] = second compound 1 µM, first compound 0.316 µM
[22] = second compound 1 µM, first compound 1 µM
[23] = second compound 1 µM, first compound 3.16 µM
[24] = second compound 1 µM, first compound 10 µM
[25] = second compound 3.16 µM, first compound 0.0316 µM
[26] = second compound 3.16 µM, first compound 0.1 µM
[27] = second compound 3.16 µM, first compound 0.316 µM
[28] = second compound 3.16 µM, first compound 1 µM
[29] = second compound 3.16 µM, first compound 3.16 µM
[30] = second compound 3.16 µM, first compound 10 µM
[31] = second compound 10 µM, first compound 0.0316 µM
[32] = second compound 10 µM, first compound 0.1 µM
[33] = second compound 10 µM, first compound 0.316 µM
[34] = second compound 10 µM, first compound 1 µM
[35] = second compound 10 µM, first compound 3.16 µM
[36] = second compound 10 µM, first compound 10 µM
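Further: spheroids exposed to compounds for seven days before readout.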
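Wherever viability, T/C is given: percent viability relative to DMSO vehicle control wells as 100%.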

CCCS(=O)(=O)Nc1ccc(F)c(C(=O)c2c[nH]c3ncc(-c4ccc(Cl)cc4)cc23)c1F + Cc1cnc(CNC(=O)c2c(=O)c3ccc(N4CCCN(C)CC4)nc3n3c2sc2ccccc23)cn1
IC50 (second compound 0.0316 µM): > 10000 nM
IC50 (second compound 0.1 µM): > 10000 nM
IC50 (second compound 0.316 µM): > 10000 nM
IC50 (second compound 1 µM): < 31.6 nM
IC50 (second compound 3.16 µM): < 31.6 nM
IC50 (second compound 10 µM): < 31.6 nM
viability, T/C [1]: 95.8%
viability, T/C [2]: 77.4%
viability, T/C [3]: 82.9%
viability, T/C [4]: 81.8%
viability, T/C [5]: 92.8%
viability, T/C [6]: 66%
viability, T/C [7]: 63.8%
viability, T/C [8]: 68.2%
viability, T/C [9]: 60.2%
viability, T/C [10]: 80.3%
viability, T/C [11]: 76.3%
viability, T/C [12]: 49.7%
viability, T/C [13]: 55.9%
viability, T/C [14]: 55.3%
viability, T/C [15]: 51.2%
viability, T/C [16]: 56.4%
viability, T/C [17]: 57.8%
viability, T/C [18]: 49.9%
viability, T/C [19]: 45.4%
viability, T/C [20]: 56.1%
viability, T/C [21]: 47%
viability, T/C [22]: 41.4%
viability, T/C [23]: 48.9%
viability, T/C [24]: 35.4%
viability, T/C [25]: 45.1%
viability, T/C [26]: 43.5%
viability, T/C [27]: 43.6%
viability, T/C [28]: 44.3%
viability, T/C [29]: 43.9%
viability, T/C [30]: 40.9%
viability, T/C [31]: 39.1%
viability, T/C [32]: 36.3%
viability, T/C [33]: 30.1%
viability, T/C [34]: 37.2%
viability, T/C [35]: 39.6%
viability, T/C [36]: 35.4%

Cn1ncnc1[C@H]1c2n[nH]c(=O)c3cc(F)cc(c23)N[C@@H]1c1ccc(F)cc1 + Cc1[nH]c2ccc(F)cc2c1-c1nc2c3cccnc3c3ncccc3c2[nH]1
IC50 (second compound 0.0316 µM): > 316 nM
IC50 (second compound 0.1 µM): > 316 nM
IC50 (second compound 0.316 µM): > 316 nM
IC50 (second compound 1 µM): > 316 nM
IC50 (second compound 3.16 µM): > 316 nM
IC50 (second compound 10 µM): > 316 nM
viability, T/C (second compound 0.0316 µM, first compound 0.000999 µM): 109%
viability, T/C (second compound 0.0316 µM, first compound 0.00316 µM): 80.7%
viability, T/C (second compound 0.0316 µM, first compound 0.00999 µM): 103%
viability, T/C [1]: 86.6%
viability, T/C (second compound 0.0316 µM, first compound 0.0999 µM): 91.8%
viability, T/C [3]: 109%
viability, T/C (second compound 0.1 µM, first compound 0.000999 µM): 90.9%
viability, T/C (second compound 0.1 µM, first compound 0.00316 µM): 92.2%
viability, T/C (second compound 0.1 µM, first compound 0.00999 µM): 88.3%
viability, T/C [7]: 109%
viability, T/C (second compound 0.1 µM, first compound 0.0999 µM): 93.4%
viability, T/C [9]: 99.5%
viability, T/C (second compound 0.316 µM, first compound 0.000999 µM): 78.3%
viability, T/C (second compound 0.316 µM, first compound 0.00316 µM): 95.6%
viability, T/C (second compound 0.316 µM, first compound 0.00999 µM): 101%
viability, T/C [13]: 117%
viability, T/C (second compound 0.316 µM, first compound 0.0999 µM): 97.9%
viability, T/C [15]: 84.4%
viability, T/C (second compound 1 µM, first compound 0.000999 µM): 77.2%
viability, T/C (second compound 1 µM, first compound 0.00316 µM): 90.2%
viability, T/C (second compound 1 µM, first compound 0.00999 µM): 94.3%
viability, T/C [19]: 90.5%
viability, T/C (second compound 1 µM, first compound 0.0999 µM): 87.2%
viability, T/C [21]: 88.9%
viability, T/C (second compound 3.16 µM, first compound 0.000999 µM): 85.5%
viability, T/C (second compound 3.16 µM, first compound 0.00316 µM): 89.3%
viability, T/C (second compound 3.16 µM, first compound 0.00999 µM): 86.2%
viability, T/C [25]: 79.7%
viability, T/C (second compound 3.16 µM, first compound 0.0999 µM): 96.4%
viability, T/C [27]: 85.1%
viability, T/C (second compound 10 µM, first compound 0.000999 µM): 106%
viability, T/C (second compound 10 µM, first compound 0.00316 µM): 86.2%
viability, T/C (second compound 10 µM, first compound 0.00999 µM): 89.5%
viability, T/C [31]: 77.9%
viability, T/C (second compound 10 µM, first compound 0.0999 µM): 91.7%
viability, T/C [33]: 78.5%

CC1COCCN1c1cc(C2(O)CC3CCC(C2)O3)c2cnn(-c3ccn[nH]3)c2n1 (stereo unspecified) + Cc1cnc(CNC(=O)c2c(=O)c3ccc(N4CCCN(C)CC4)nc3n3c2sc2ccccc23)cn1
IC50 (second compound 0.0316 µM): < 31.6 nM
IC50 (second compound 0.1 µM): < 31.6 nM
IC50 (second compound 0.316 µM): < 31.6 nM
IC50 (second compound 1 µM): < 31.6 nM
IC50 (second compound 3.16 µM): < 31.6 nM
IC50 (second compound 10 µM): < 31.6 nM
viability, T/C [1]: 48.9%
viability, T/C [2]: 17.3%
viability, T/C [3]: 11%
viability, T/C [4]: 8.41%
viability, T/C [5]: 10.1%
viability, T/C [6]: 8.06%
viability, T/C [7]: 22.6%
viability, T/C [8]: 14.5%
viability, T/C [9]: 9.1%
viability, T/C [10]: 9.8%
viability, T/C [11]: 11.5%
viability, T/C [12]: 8.77%
viability, T/C [13]: 15.5%
viability, T/C [14]: 11.7%
viability, T/C [15]: 10.3%
viability, T/C [16]: 9.55%
viability, T/C [17]: 10.9%
viability, T/C [18]: 9.41%
viability, T/C [19]: 13.8%
viability, T/C [20]: 12.3%
viability, T/C [21]: 9.3%
viability, T/C [22]: 7.89%
viability, T/C [23]: 9.58%
viability, T/C [24]: 7.69%
viability, T/C [25]: 17.7%
viability, T/C [26]: 11.3%
viability, T/C [27]: 10.5%
viability, T/C [28]: 9.3%
viability, T/C [29]: 8.86%
viability, T/C [30]: 8.53%
viability, T/C [31]: 13.8%
viability, T/C [32]: 11.2%
viability, T/C [33]: 10.2%
viability, T/C [34]: 9.98%
viability, T/C [35]: 9.05%
viability, T/C [36]: 7.21%
